This note sets out measurements from article PMC8288134, “Synthesis, potential antitumor activity, cell cycle analysis, and multitarget mechanisms of novel hydrazones incorporating a 4-methylsulfonylbenzene scaffold: a molecular docking study” (Journal of Enzyme Inhibition and Medicinal Chemistry, 2021).

Each structure is given as a SMILES string. Where two headings read alike, the source gives them in different places.

One data set concerns HL-60(TB). Kind of data set: cells. Type of data set: cell-based, human. The conditions noted are these: Homo sapiens, HL-60, HL-60(TB); one dose 10 µM; read-out: Growth inhibition percentage (GI%).
The subject of the next data set is K-562. The data set can be described thus: NCI antitumor screen (SRB). The conditions noted are these: Homo sapiens, K562, read-out: Growth inhibition percentage (GI%). Type of data set: cell-based.
For another data set, the system named is MOLT-4. Kind of data set: NCI antitumor screen (SRB). It is filed as cell-based. The following applies: Homo sapiens, one dose 10 µM, read-out: Growth inhibition percentage (GI%).
The next data set has as its system A549/ATCC. The data set can be described thus: NCI antitumor screen (SRB). The conditions noted are these: Homo sapiens, one dose 10 µM, read-out: Growth inhibition percentage (GI%). It is filed as cell-based.
The next data set relates to HOP-62. Kind of data set: NCI antitumor screen (SRB). Type of data set: cell-based. The conditions noted are these: Homo sapiens.
The next data set relates to NCI-H522. The data set can be described thus: NCI antitumor screen (SRB). It is filed as cell-based. The following applies: Homo sapiens.
A further data set deals with U251. The data set can be described thus: NCI antitumor screen (SRB). It is filed as cell-based. The following applies: Homo sapiens, U-251, one dose 10 µM, read-out: Growth inhibition percentage (GI%).
In another data set the test system is SK-MEL-2. The data set can be described thus: NCI antitumor screen (SRB). It is filed as cell-based. The conditions noted are these: Homo sapiens, SK-MEL-2, read-out: Growth inhibition percentage (GI%).
Another data set deals with UACC-257. Kind of data set: NCI antitumor screen (SRB). It is filed as cell-based, human. The conditions noted are these: Homo sapiens, one dose 10 µM, read-out: Growth inhibition percentage (GI%).
The subject of another data set is OVCAR-8. Kind of data set: NCI antitumor screen (SRB). The following applies: Homo sapiens, one dose 10 µM, read-out: Growth inhibition percentage (GI%). Type of data set: cell-based.
Data set [1] deals with full panel of 59 cancer cell lines. Kind of data set: NCI antitumor screen, full panel. The following applies: one dose 10 µM.
The next data set relates to CCRF-CEM. The data set can be described thus: NCI antitumor screen (SRB). Type of data set: cell-based. The conditions noted are these: Homo sapiens, one dose 10 µM, read-out: Growth inhibition percentage (GI%).
The subject of another data set is NCI-H226. The data set can be described thus: NCI antitumor screen (SRB). Type of data set: cell-based. The following applies: Homo sapiens, one dose 10 µM, read-out: Growth inhibition percentage (GI%).
For the next data set, the system named is HT29. Kind of data set: NCI antitumor screen (SRB). Type of data set: cell-based. The conditions noted are these: Homo sapiens, HT-29, one dose 10 µM, read-out: Growth inhibition percentage (GI%).
A further data set has as its system SK-OV-3. The data set can be described thus: NCI antitumor screen (SRB). Type of data set: cell-based. The conditions noted are these: Homo sapiens, one dose 10 µM, read-out: Growth inhibition percentage (GI%).
A further data set deals with A498. Kind of data set: NCI antitumor screen (SRB). It is filed as cell-based. The conditions noted are these: Homo sapiens, one dose 10 µM, read-out: Growth inhibition percentage (GI%).
The test system of another data set is UO-31. Kind of data set: NCI antitumor screen (SRB). Type of data set: cell-based, human. The conditions noted are these: Homo sapiens, one dose 10 µM, read-out: Growth inhibition percentage (GI%).
The subject of the next data set is PC-3. The data set can be described thus: NCI antitumor screen (SRB). Type of data set: cell-based. The following applies: Homo sapiens, one dose 10 µM, read-out: Growth inhibition percentage (GI%).
The next data set has as its system T-47D. The data set can be described thus: NCI antitumor screen (SRB). It is filed as cell-based. The conditions noted are these: Homo sapiens, T47D, one dose 10 µM, read-out: Growth inhibition percentage (GI%).
A further data set has as its system SNB-75. The data set can be described thus: NCI antitumor screen (SRB). Type of data set: cell-based. The conditions noted are these: Homo sapiens, one dose 10 µM, read-out: Growth inhibition percentage (GI%).
A further data set relates to MDA-MB-468. The data set can be described thus: NCI antitumor screen (SRB). Type of data set: cell-based. The conditions noted are these: Homo sapiens, one dose 10 µM, read-out: Growth inhibition percentage (GI%).
A further data set concerns SR. The data set can be described thus: NCI antitumor screen (SRB). The following applies: Homo sapiens, one dose 10 µM, read-out: Growth inhibition percentage (GI%). Type of data set: cell-based.
The test system of the next data set is HCT-116. Kind of data set: NCI antitumor screen (SRB). The conditions noted are these: Homo sapiens, read-out: Growth inhibition percentage (GI%). It is filed as cell-based.
A further data set has as its system MALME-3M. The data set can be described thus: NCI antitumor screen (SRB). The following applies: Homo sapiens, one dose 10 µM, read-out: Growth inhibition percentage (GI%). Type of data set: cell-based.
In another data set the test system is UACC-62. The data set can be described thus: NCI antitumor screen (SRB). Type of data set: cell-based. The following applies: Homo sapiens, one dose 10 µM, read-out: Growth inhibition percentage (GI%).
Another data set relates to IGROV1. Kind of data set: NCI antitumor screen (SRB). The following applies: Homo sapiens, IGROV-1, one dose 10 µM, read-out: Growth inhibition percentage (GI%). It is filed as cell-based.
A further data set has as its system CAKI-1. Kind of data set: NCI antitumor screen (SRB). Type of data set: cell-based. The conditions noted are these: Homo sapiens, one dose 10 µM, read-out: Growth inhibition percentage (GI%).
In a further data set the test system is COLO 205. Kind of data set: NCI antitumor screen (SRB). The following applies: Homo sapiens, one dose 10 µM, read-out: Growth inhibition percentage (GI%). It is filed as cell-based.
The mark [2] stands for this setting: HOP-62, read-out: Growth inhibition percentage (GI%).
Where [3] appears, read: NCI-H522, read-out: Growth inhibition percentage (GI%).

What is called inhibition is the share of the control response that was lost under treatment. On to `CS(=O)(=O)c1ccc(C(=O)NN=Cc2ccccc2)cc1` [Compound 4, N'-Benzylidene-4-(methylsulfonyl)benzohydrazide], for which the inhibition at 10 µM with HL-60(TB) amounted to 60.3%; in the data set with K-562, 11.3%; with MOLT-4, 25.5%; with A549/ATCC, 28.5%; in the data set with HOP-62 (setting [2]) it was 12%; in the data set with NCI-H522 (setting [3]) it was 42.1%. In addition, the inhibition at 10 µM in the data set with U251 came out at 20.4%; with SK-MEL-2 it was 21.5%; in the data set on UACC-257 (UACC-257) it was 44.2%; with OVCAR-8 it was 15.1%. In data set [1], the “PCE: positive cytotoxic effect (number of cell lines with GI 10 to 100% / total number of cell lines)” value is 10/59.

Take `CS(=O)(=O)c1ccc(C(=O)NN=Cc2cccnc2)cc1` [Compound 5, 4-(Methylsulfonyl)-N'-(pyridin-3-ylmethylene)benzohydrazide]: the inhibition at 10 µM in the data set with CCRF-CEM was determined as 11.1%; in the data set on HL-60(TB), 20.5%; in the data set on K-562, 18.8%; in the data set on A549/ATCC it was 10.6%; in the data set on HOP-62 (setting [2]), 16.5%; in the data set with NCI-H226, 11.9%. For the same compound, the inhibition at 10 µM was determined as 15.1% with NCI-H522 (setting [3]); 13.3% in the data set on HT29; 16.9% in the data set with SK-OV-3; 11.2% with A498; 16.3% in the data set on UO-31 (UO-31); 17.9% in the data set with PC-3. Moreover, the inhibition at 10 µM with T-47D is 13.7%. Besides, in data set [1], the “PCE: positive cytotoxic effect (number of cell lines with GI 10 to 100% / total number of cell lines)” value is on record as 13/59.

For the compound `CS(=O)(=O)c1ccc(C(=O)NN=Cc2ccc(Cl)cc2Cl)cc1` [Compound 17, N'-(2,4-Dichlorobenzylidene)-4-(methylsulfonyl)benzohydrazide], the inhibition at 10 µM with A549/ATCC was determined as 13.7%; with HOP-62 (HOP-62, one dose 10 µM, read-out: Growth inhibition percentage (GI%)), 10.2%; with NCI-H226, 13.6%; in the data set with NCI-H522 (NCI-H522, one dose 10 µM, read-out: Growth inhibition percentage (GI%)), 25%; in the data set with HT29, 11.3%; in the data set with SNB-75, 10.9%. For the same compound, the inhibition at 10 µM in the data set on UACC-257 (UACC-257, UACC-257) turned out to be 29.4%; in the data set with UO-31 (UO-31, UO-31), 12.7%; with MDA-MB-468, 18.1%. The “PCE: positive cytotoxic effect (number of cell lines with GI 10 to 100% / total number of cell lines)” value in data set [1] is listed as 9/59.

As to `CS(=O)(=O)c1ccc(C(=O)NN=Cc2ccc(Cl)c(Cl)c2)cc1` [Compound 18, N'-(3,4-Dichlorobenzylidene)-4-(methylsulfonyl)benzohydrazide], the inhibition at 10 µM was determined as 30.6% in the data set on HL-60(TB); 17.7% in the data set with K-562; 31.7% in the data set on MOLT-4; 24.5% with SR; 20.1% in the data set with A549/ATCC; 17.2% in the data set with NCI-H522 (setting [3]). Besides, the inhibition at 10 µM in the data set with HCT-116 was found to be 12.7%; in the data set with MALME-3M, 12.2%; in the data set on UACC-257 (UACC-257) it was 21.8%; in the data set on UACC-62, 11.2%; in the data set with IGROV1, 15%; in the data set on A498, 16%. Besides, the inhibition at 10 µM in the data set with CAKI-1 came to 10.1%; in the data set on PC-3, 10.3%. In addition, the “PCE: positive cytotoxic effect (number of cell lines with GI 10 to 100% / total number of cell lines)” value in [1] was 14/59.

Regarding `COc1cc(/C=N/NC(=O)c2ccc(S(C)(=O)=O)cc2)ccc1O` [Compound 19], the inhibition at 10 µM is 67.3% in the data set with HL-60(TB); 27.2% with K-562; 30.9% with MOLT-4; 18.5% with SR; 29.3% in the data set on A549/ATCC; 12.1% in the data set on HOP-62 (setting [2]). Besides, the inhibition at 10 µM with NCI-H522 (setting [3]) is 37.7%; in the data set with HT29 it was 17.5%; in the data set on U251, 13%; in the data set with SK-MEL-2, 13.9%; in the data set with UACC-257 (UACC-257), 48.4%; with OVCAR-8, 19.6%. The inhibition at 10 µM in the data set on UO-31 (UO-31) came out at 12.8%. The “PCE: positive cytotoxic effect (number of cell lines with GI 10 to 100% / total number of cell lines)” value in [1] is on record as 13/59.

In the case of `COc1cc(C=NNC(=O)c2ccc(S(C)(=O)=O)cc2)cc(OC)c1OC` [Compound 23, 4-(Methylsulfonyl)-N'-(3,4,5-trimethoxybenzylidene)benzohydrazide], the inhibition at 10 µM is 44.2% in the data set on HL-60(TB); 37.6% in the data set on K-562; 32.6% in the data set on MOLT-4; 22.8% with A549/ATCC; 14.6% with COLO 205; 11.3% in the data set on SNB-75. The inhibition at 10 µM with UACC-257 (UACC-257) is 28.6%; in the data set with SK-OV-3, 14.2%; in the data set on UO-31 (UO-31) it was 10.2%. The “PCE: positive cytotoxic effect (number of cell lines with GI 10 to 100% / total number of cell lines)” value in data set [1] is on record as 9/59.
